Experimental data published in US20170081331A1, “Pyrazolopyrazines and their use in the treatment, amelioration or prevention of a viral disease” (F. Hoffmann-La Roche AG, priority 2015, published 2017).

Biological target: T1, influenza A virus (IAV) PA-Nter fragment (amino acids 1-209) (Influenza A virus, UniProt P31343)
T1 construct: PA-Nter fragment (amino acids 1-209); made in house
Experiment: FRET endonuclease activity assay
Type: biochemical
Conditions: PA-Nter 0.5 μM, 1.6 μM RNA substrate; from initial reaction velocities (v0)

Compound	IC50 [µM]
CC(C)N1CCn2c(c(O)c(=O)n2Cc2ccccc2)C1=O	12.4
CC(C)N1CCn2[nH]c(=O)c(O)c2C1=O	1.31
CC(C)N1CCn2c(c(O)c(=O)n2CCc2ccccc2)C1=O	7.54
CC(C)N1CC(C)n2c(c(O)c(=O)n2Cc2ccccc2)C1=O (stereo not shown)	2.63

Biological target: whole RNP complex of IAV strain A/PR/8/34 (Influenza A virus, UniProt P03433)
Experiment: Transcription assay (TA assay), Quantigene detection of de novo viral mRNA
Type: biochemical, influenza A virus A/PR/8/34
Conditions: 80 pM RNPs, 2 nM capped RNA substrate, cell-free; read-out: TA IC50 (unit inferred)

Compound	IC50 [µM]
COC(=O)c1nn2c(c1O)C(=O)N(C(C)C)CC2	79.6

Same assay, conditions: 80 pM RNPs, 2 nM capped RNA substrate, cell-free; read-out: TA assay IC50

Compound	IC50 [µM]
CC(C)N1CC(c2ccccc2)n2c(c(O)c(=O)n2Cc2ccccc2)C1=O (stereo not shown)	5.85
O=C(O)c1nn2c(c1OCc1ccccc1)C(=O)NCC2	0.532
O=C(O)c1nn2c(c1O)C(=O)NCC2Cc1ccccc1 (stereo not shown)	35.1
CN1CC(Cc2ccccc2)n2nc(C(=O)O)c(O)c2C1=O (stereo not shown)	25.5
CC(C)N1CC(Cc2ccccc2)n2nc(C(=O)O)c(O)c2C1=O (stereo not shown)	13.2
